Test [1] is filed under the species Cavia porcellus. The experiment in a line: Ability to inhibit histamine-induced contractions of isolated guinea pig ileum. Type of test: functional.
For test [2], the species on record is Oryctolagus cuniculus. Put plainly: Test against PAF-induced aggregation of rabbit platelets in vitro. Format: functional.
Test [3] has as its target T1, Polyunsaturated fatty acid 5-lipoxygenase (Homo sapiens) (UniProt P09917).
T1 sequence (whole entry): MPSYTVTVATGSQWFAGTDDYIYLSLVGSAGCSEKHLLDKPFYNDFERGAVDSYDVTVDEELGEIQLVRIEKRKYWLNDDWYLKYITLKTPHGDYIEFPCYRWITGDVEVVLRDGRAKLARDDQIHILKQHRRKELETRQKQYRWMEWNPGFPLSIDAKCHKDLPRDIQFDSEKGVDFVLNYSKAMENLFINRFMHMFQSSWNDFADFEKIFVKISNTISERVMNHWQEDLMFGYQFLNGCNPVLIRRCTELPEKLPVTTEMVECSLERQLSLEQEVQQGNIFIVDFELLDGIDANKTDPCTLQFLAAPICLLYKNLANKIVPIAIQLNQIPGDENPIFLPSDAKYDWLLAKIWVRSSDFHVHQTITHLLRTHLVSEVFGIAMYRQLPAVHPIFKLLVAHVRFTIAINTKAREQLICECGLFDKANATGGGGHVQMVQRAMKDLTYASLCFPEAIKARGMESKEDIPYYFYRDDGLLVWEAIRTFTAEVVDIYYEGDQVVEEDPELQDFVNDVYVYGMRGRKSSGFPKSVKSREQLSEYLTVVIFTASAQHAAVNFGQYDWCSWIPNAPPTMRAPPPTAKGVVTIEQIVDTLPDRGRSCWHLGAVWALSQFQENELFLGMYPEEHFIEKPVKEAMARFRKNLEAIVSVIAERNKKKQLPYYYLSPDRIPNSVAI
Put plainly: Inhibitory activity uM. The following applies: Cavia porcellus; concentration not given here.

Test [4] is filed under the species Rattus norvegicus. Put plainly: Inhibition of cutaneous histamine reaction in rats. Type of test: functional.
The species entered for test [5] is Cavia porcellus. Put plainly: Ability to inhibit histamine-induced contractions of isolated guinea pig ileum at 10e-5 M. Type of test: functional.

pIC50: −log10 of the molar value.

Broadly, the pIC50 is the IC50 on a negative log10 scale, so that one unit is a factor of ten. Low readings indicate a large IC50, high ones a small IC50. One may read the inhibition as the relative decrease from the control value, in per cent. A higher inhibition goes with strong suppression. One may read the ED50 as the midpoint of the dose-response relation.

As for `O=C(O)COCCN1CCN(C(c2ccccc2)c2ccc(Cl)cc2)CC1` (stereo not drawn) [CETIRIZINE], the pIC50 was 6.42 in test [1] and < 4.00 in test [2].
`Cc1c(CCCN2CCN(c3ccc(F)cc3)CC2)c2cccc3c2n1CCC3`: the pIC50 in test [1] is 5.72; in test [2], < 4.00.
In the case of `CC(C)=Cc1cc2c3c(c1)c(CCN1CCN(c4cc(C)ccn4)CC1)c(C)n3CCC2`, the pIC50 in test [1] was 6.85; in test [2], 4.66. Besides, in test [3], the inhibition is 41%. The same molecule returned an ED50 in test [4] of 4.9 µmol/kg.
In turn, `CC(=O)Oc1cc2c3c(c1)c(CCN1CCN(c4cc(C)ccn4)CC1)c(C)n3CCC2` gave a pIC50 in test [1] of 7.64.
Consider `Cc1ccnc(N2CCN(CCc3c(C)n4c5c(cc(CC6CCCCC6)cc35)CCC4)CC2)c1`, for which the pIC50 in test [2] was 4.41. Further, in test [5], at 10 µM the inhibition was 50%.
Regarding `Cc1ccc(N2CCN(CCc3c(C)n4c5c(cccc35)CCC4)CC2)nc1`, the pIC50 in test [1] is 6.74; in test [2], < 4.00.
Take `COc1cc2c3c(c1)c(CCN1CCN(c4cc(C)ccn4)CC1)c(C)n3CCC2`: the pIC50 in test [1] was 7.52; in test [2], 5.21. This molecule also had an inhibition in test [3] of 15%. Moreover, the ED50 in test [4] stood at 0.7 µmol/kg.
As to `Cc1c(CCN2CCC(C(=O)c3ccc(F)cc3)CC2)c2cccc3c2n1CCC3`, the pIC50 in test [1] was 6.31; in test [2], < 4.00.
For `Cc1ccnc(N2CCN(CCc3c(C)n4c5c(cccc35)CCC4)CC2)c1`, the results for the pIC50 in test [1] and in test [2] were 7.49 and 5.59, respectively. In test [3], this molecule registered an inhibition of 0%. For the same molecule, the ED50 in test [4] is 4 µmol/kg.
With `Cc1ccnc(N2CCN(CCc3c(C)n4c5c(cc(NC(=O)c6ccccc6)cc35)CCC4)CC2)c1`, the values for the pIC50 in test [1] and in test [2] were 7.07 and < 4.00, respectively. In test [3], this molecule yielded an inhibition of 40%. The molecule further had an ED50 in test [4] of 3 µmol/kg.
The like results for `Cc1ccnc(N2CCN(CCc3c(C)n4c5c(cc(C(=O)C(C)(C)C)cc35)CCC4)CC2)c1` were, in that order, 7.05, 5.23, 22% and 3.3 µmol/kg.
On to `Cc1ccnc(N2CCN(CCc3c(Cc4ccccc4)n4c5c(cccc35)CCC4)CC2)c1`, for which the figures for the pIC50 in test [1] and in test [2] were 5.54 and 4.66, respectively.
For the molecule `CCCCC1CCc2cc(OC)cc3c(CCN4CCN(c5cc(C)ccn5)CC4)c(C)n1c23` (stereo not drawn), the figures for the pIC50 in test [1] and in test [2] were 6.47 and 5.85, respectively. In addition, the inhibition in test [3] is 50%. The molecule further yielded an ED50 in test [4] of 0.9 µmol/kg.
In the case of `Cc1ccnc(N2CCN(CCCc3c(C)n4c5c(cccc35)CCC4)CC2)c1`, the pIC50 in test [1] is 5.74; in test [2] it was 4.49.
With `Cc1ccnc(N2CCN(CCc3c(C)n4c5c(cc(C(O)C(C)C)cc35)CCC4)CC2)c1` (stereo not drawn), the results for the pIC50 in test [1] and in test [2] were 6.96 and 5.38, respectively. Further, the inhibition in test [3] came out at 8%. This molecule showed an ED50 in test [4] of 2.6 µmol/kg.
For `CCCCCCCC1CCc2cccc3c(CCN4CCN(c5cc(C)ccn5)CC4)c(C)n1c23` (stereo not drawn), in test [5], the inhibition at 10 µM is 50%.
Take `Cc1ccnc(N2CCN(CCc3c(C)n4c5c(cc(C(=O)C6CCCCC6)cc35)CCC4)CC2)c1`: the pIC50 in test [1] was 6.60; in test [2] it was 5.70. Further, the inhibition in test [3] is 68%. Further, the ED50 in test [4] is 2.9 µmol/kg.
In test [2], `Cc1ccnc(N2CCN(CCc3c(-c4ccc(Cl)cc4)n4c5c(cccc35)CCC4)CC2)c1` had a pIC50 of 5.48. Besides, the inhibition at 10 µM in test [5] turned out to be 6%.
For `Cc1ccnc(N2CCN(CCc3c(C)n4c5c(cc(Cc6ccccc6)cc35)CCC4)CC2)c1`, the pIC50 in test [1] is 5.62; in test [2], 5.55.
Consider `Cc1ccnc(N2CCN(C(=O)Cc3c(C)n4c5c(cccc35)CCC4)CC2)c1`, for which the pIC50 in test [1] is 5.23; in test [2], 5.02.
Take `Cc1ccnc(N2CCN(CCc3c(C)n4c5c(cc(O)cc35)CCC4)CC2)c1`: the pIC50 in test [1] is 7.68; in test [2], 4.41. Further, it took a dose of 6 µmol/kg to reach the 50% effect level in test [4] (ED50).
With `Cc1ccnc(N2CCN(CCc3cn4c5c(cccc35)CCC4)CC2)c1`, the values for the pIC50 in test [1] and in test [2] were 7.20 and 4.51, respectively.
Molecule `COc1ccc(N2CCN(CCc3c(C)n4c5c(cccc35)CCC4)CC2)cc1` had a pIC50 in test [2] of 4.09. In test [5], 10 µM produced 9% inhibition.
In test [2], `Cc1cccnc1N1CCN(CCc2c(C)n3c4c(cccc24)CCC3)CC1` showed a pIC50 of 4.17. In test [5], this molecule had an inhibition at 10 µM of 7%.
`Cc1cccc(N2CCN(CCc3c(C)n4c5c(cccc35)CCC4)CC2)n1`: the pIC50 in test [1] is 6.46; in test [2], 4.33.
Regarding `COc1ccc(CN(CCN(C)C)c2ccccn2)cc1` [PYRILAMINE], the pIC50 in test [1] is 7.77; in test [2] it was < 4.00.
With `Cc1ccnc(N2CCN(CCc3c(C)n4c5c(cccc35)CCC4C)CC2)c1` (stereo not drawn), the pIC50 in test [1] is 7.48; in test [2] it was 5.16. The molecule also came in with an inhibition in test [3] of 19%. Moreover, the 50% effect level in test [4] (ED50) was put at a dose of 2.6 µmol/kg.
In the case of `Cc1ccnc(N2CCN(CCc3c(-c4ccc(F)cc4)n4c5c(cccc35)CCC4)CC2)c1`, the pIC50 in test [2] is 5.70. For the same molecule, 10 µM produced 3% inhibition in test [5].
Take `Cc1c(CC(=O)N2CCN(c3ccc(F)cc3)CC2)c2cccc3c2n1CCC3`: the results for the pIC50 in test [1] and in test [2] were 5.15 and 4.36, respectively.
In the case of `CCCCC1CCc2cccc3c(CCN4CCN(c5cc(C)ccn5)CC4)c(C)n1c23` (stereo not drawn), the values for the pIC50 in test [1] and in test [2] were 6.01 and 5.32, respectively. The molecule further returned an inhibition in test [3] of 29%. Further, in test [4], the ED50 amounted to 2.1 µmol/kg.
The like results for `CCCCC1CCc2cc(C(=O)C(C)C)cc3c(CCN4CCN(c5cc(C)ccn5)CC4)c(C)n1c23` (stereo not drawn) were, in that order, 6.40, 5.70, 50% and 3.3 µmol/kg.
The like results for `Cc1ccnc(N2CCN(CCc3c(C)n4c5c(cc(CC(C)C)cc35)CCC4)CC2)c1` were, in that order, 6.10, 5.37, 20% and 5.1 µmol/kg.
Molecule `COc1ccc(-c2c(CCN3CCN(c4cc(C)ccn4)CC3)c3cccc4c3n2CCC4)cc1` gave a pIC50 in test [2] of 6.22. At 10 µM the inhibition in test [5] was 15%.
For `Cc1ccnc(N2CCN(CCc3c(C)n4c5c(cccc35)CCC4c3ccccc3)CC2)c1` (stereo not drawn), the pIC50 in test [1] is 6.55; in test [2] it was 5.66. In test [3], the inhibition is 17%. In addition, the ED50 in test [4] amounted to 2.9 µmol/kg.
With `Cc1ccnc(N2CCN(CCc3c(C)n4c5c(cc(C(=O)/C=C/c6ccccc6)cc35)CCC4)CC2)c1`, in test [1], the pIC50 is 6.72.
Regarding `Cc1ccnc(N2CCN(CCc3c(-c4ccccc4)n4c5c(cccc35)CCC4)CC2)c1`, the pIC50 in test [2] was 5.38. In test [5], this molecule registered an inhibition at 10 µM of 24%.
Regarding `Cc1ccnc(N2CCN(CCc3c(C)n4c5c(cc(C(=O)c6ccccc6)cc35)CCC4)CC2)c1`, the pIC50 in test [1] was 6.54; in test [2], 6.10.
Turning to `Cc1ccnc(N2CCN(CCc3c(C)n4c5c(cc(C)cc35)CCC4)CC2)c1`, the values for the pIC50 in test [1] and in test [2] were 7.15 and 5.04, respectively.
Turning to `Cc1ccc(N2CCN(C(=O)Cc3c(C)n4c5c(cccc35)CCC4)CC2)nc1`, the pIC50 in test [1] is 5.08; in test [2], 4.38.
As to `Cc1c(CCN2CCN(c3ccccn3)CC2)c2cccc3c2n1CCC3`, the pIC50 was 7.19 in test [1] and 4.40 in test [2].
The like results for `Cc1c(CCN2CCC(c3ccccc3)CC2)c2cccc3c2n1CCC3` were, in that order, 6.35 and 4.12.
The like results for `Cc1c(CCN2CCN(c3ccc(Br)cn3)CC2)c2cccc3c2n1CCC3` were, in that order, 6.00 and < 4.00.
For the molecule `Cc1ccnc(N2CCN(CCc3c(C)n4c5c(cccc35)CCC4C3CCCCC3)CC2)c1` (stereo not drawn), the pIC50 in test [2] was 4.60. In test [5], this molecule gave an inhibition at 10 µM of 50%.
In the case of `Cc1c(CCN2CCN(c3ccc(F)cc3)CC2)c2cccc3c2n1CCC3`, the values for the pIC50 in test [1] and in test [2] were 7.12 and < 4.00, respectively.
The like results for `COc1ccccc1N1CCN(CCc2c(C)n3c4c(cccc24)CCC3)CC1` were, in that order, 6.60 and 4.09.
With `Cc1ccnc(N2CCN(CCc3c(-c4ccc(O)cc4)n4c5c(cccc35)CCC4)CC2)c1`, the pIC50 in test [2] is 5.70. The inhibition at 10 µM in test [5] was 14%.
In the case of `CCCCCCC(=O)c1cc2c3c(c1)c(CCN1CCN(c4cc(C)ccn4)CC1)c(C)n3CCC2`, the pIC50 was 5.92 in test [1] and 5.62 in test [2].
For the molecule `Cc1ccnc(N2CCN(C(=O)CCc3c(C)n4c5c(cccc35)CCC4)CC2)c1`, the figures for the pIC50 in test [1] and in test [2] were 5.85 and 4.70, respectively.
As to `Cc1ccc(-c2c(CCN3CCN(c4cc(C)ccn4)CC3)c3cccc4c3n2CCC4)cc1`, the figures for the pIC50 in test [2] and in test [5] were 5.70 and 4.70, respectively.
As for `Cc1c(CCN2CCN(c3ccc(F)c(Cl)c3)CC2)c2cccc3c2n1CCC3`, the pIC50 was 6.29 in test [1] and < 4.00 in test [2].
As for `CC(=O)c1cc2c3c(c1)c(CCN1CCN(c4cc(C)ccn4)CC1)c(C)n3CCC2`, the values for the pIC50 in test [1] and in test [2] were 7.72 and 5.12, respectively. This molecule had an inhibition in test [3] of 48%. The same molecule returned an ED50 in test [4] of 2 µmol/kg.

(Values after ChEMBL document CHEMBL1128244, “Synthesis, structure-activity relationships, and pharmacological evaluation of pyrrolo[3,2,1-ij]quinoline derivatives: potent histamine and platelet activating factor antagonism and 5-lipoxygenase inhibitory properties. Potential therapeutic application in asthma” (J Med Chem, 1995).)
